Experimental data taken from ChEMBL document CHEMBL3232945 (Eur J Med Chem, 2014).

Experiments:
Rattus norvegicus [1] = experiment: Toxicity in anaesthetized-Wistar rat assessed as QRS ECG interval at 40 mg/kg, ip measured immediately at 0 min (reference value: 19.6 +/- 1.142 ms); format: organism-based; set-up: dose 40 mg/kg, route intraperitoneal; details: in vivo, 0 h
Rattus norvegicus [2] = experiment: Toxicity in anesthetized-normotensive Wistar rat assessed as heart rate at 40 mg/kg, ip after 45 mins (reference value: 316.82 +/- 8.452 bpm); format: organism-based; set-up: dose 40 mg/kg, route intraperitoneal; details: in vivo, 0.75 h
Rattus norvegicus [3] = experiment: Toxicity in anaesthetized-Wistar rat assessed as Q-T ECG interval at 40 mg/kg, ip after 30 mins (reference value: 78.3 +/- 0.860 ms); format: organism-based; set-up: dose 40 mg/kg, route intraperitoneal; details: in vivo, 0.5 h
Rattus norvegicus [4] = experiment: Toxicity in anaesthetized-Wistar rat assessed as P-Q ECG interval at 40 mg/kg, ip after 15 mins (reference value: 52.2 +/- 1.158 ms); format: organism-based; set-up: dose 40 mg/kg, route intraperitoneal; details: in vivo, 0.25 h
Rattus norvegicus [5] = experiment: Toxicity in anesthetized-normotensive Wistar rat assessed as heart rate at 40 mg/kg, ip measured immediately at 0 min (reference value: 316.62 +/- 9.643 bpm); format: organism-based; set-up: dose 40 mg/kg, route intraperitoneal; details: in vivo, 0 h
Rattus norvegicus [6] = experiment: Toxicity in anaesthetized-Wistar rat assessed as P-Q ECG interval at 40 mg/kg, ip measured immediately at 0 min (reference value: 52.4 +/- 0.927 ms); format: organism-based; set-up: dose 40 mg/kg, route intraperitoneal; details: in vivo, 0 h
Rattus norvegicus [7] = experiment: Toxicity in anaesthetized-Wistar rat assessed as QRS ECG interval at 40 mg/kg, ip after 30 mins (reference value: 19.9 +/- 1.393 ms); format: organism-based; set-up: dose 40 mg/kg, route intraperitoneal; details: in vivo, 0.5 h
Rattus norvegicus [8] = experiment: Toxicity in anaesthetized-Wistar rat assessed as Q-T ECG interval at 40 mg/kg, ip after 15 mins (reference value: 79.4 +/- 1.270 ms); format: organism-based; set-up: dose 40 mg/kg, route intraperitoneal; details: in vivo, 0.25 h
Rattus norvegicus [9] = experiment: Antiarrhythmic activity in barium chloride-induced Wistar rat assessed as increase in appearance time of arrhythmia at 40 mg/kg, ip administered 60 mins before barium chloride challenge (reference value: 129.4 +/- 4.373 sec); format: functional, Heart; details: route intraperitoneal
Rattus norvegicus [10] = experiment: Antihypertensive activity in Wistar rat assessed as mean arterial pressure at 40 mg/kg, ip after 45 mins (reference value: 193.96 +/- 0.865 mmHg); format: functional, Artery; details: route intraperitoneal
Rattus norvegicus [11] = experiment: Toxicity in anaesthetized-Wistar rat assessed as P-Q ECG interval at 40 mg/kg, ip after 60 mins (reference value: […] +/- 0.924 ms); format: organism-based; set-up: dose 40 mg/kg, route intraperitoneal; details: in vivo, 1 h
Rattus norvegicus [12] = experiment: Toxicity in anaesthetized-Wistar rat assessed as P-Q ECG interval at 40 mg/kg, ip after 45 mins (reference value: 52.5 +/- 0.780 ms); format: organism-based; set-up: dose 40 mg/kg, route intraperitoneal; details: in vivo, 0.75 h
Rattus norvegicus [13] = experiment: Toxicity in […] normotensive Wistar rat assessed as mean arterial pressure at 40 mg/kg, ip measured immediately at 0 min (reference value: 94.21 +/- 2.065 mmHg); format: organism-based, Artery; set-up: dose 40 mg/kg, route intraperitoneal; details: in vivo, 0 h
Rattus norvegicus [14] = experiment: Toxicity in […] normotensive Wistar rat assessed as mean arterial pressure at 40 mg/kg, ip after 45 mins (reference value: 94.83 +/- 0.943 mmHg); format: organism-based, Artery; set-up: dose 40 mg/kg, route intraperitoneal; details: in vivo, 0.75 h
Rattus norvegicus [15] = experiment: Antihypertensive activity in Wistar rat assessed as mean arterial pressure at 40 mg/kg, ip after 60 mins (reference value: 195.11 +/- 0.531 mmHg); format: functional, Artery; details: route intraperitoneal
Rattus norvegicus [16] = experiment: Toxicity in anaesthetized-Wistar rat assessed as QRS ECG interval at 40 mg/kg, ip after 15 mins (reference value: 18.9 +/- 1.563 ms); format: organism-based; set-up: dose 40 mg/kg, route intraperitoneal; details: in vivo, 0.25 h
Rattus norvegicus [17] = experiment: Toxicity in anesthetized-normotensive Wistar rat assessed as heart rate at 40 mg/kg, ip after 30 mins (reference value: 317.68 +/- 7.631 bpm); format: organism-based; set-up: dose 40 mg/kg, route intraperitoneal; details: in vivo, 0.5 h
Rattus norvegicus [18] = experiment: Toxicity in anesthetized-normotensive Wistar rat assessed as heart rate at 40 mg/kg, ip after 15 mins (reference value: 313.93 +/- 9.912 bpm); format: organism-based; set-up: dose 40 mg/kg, route intraperitoneal; details: in vivo, 0.25 h
Rattus norvegicus [19] = experiment: Toxicity in anaesthetized-Wistar rat assessed as QRS ECG interval at 40 mg/kg, ip after 60 mins (reference value: 19.3 +/- 0.873 ms); format: organism-based; set-up: dose 40 mg/kg, route intraperitoneal; details: in vivo, 1 h
Rattus norvegicus [20] = experiment: Toxicity in anaesthetized-Wistar rat assessed as P-Q ECG interval at 40 mg/kg, ip after 30 mins (reference value: […] +/- 0.927 ms); format: organism-based; set-up: dose 40 mg/kg, route intraperitoneal; details: in vivo, 0.5 h
Rattus norvegicus [21] = experiment: Antihypertensive activity in Wistar rat assessed as mean arterial pressure at 40 mg/kg, ip measured immediately at 0 min (reference value: 194.08 +/- 1.962 mmHg); format: functional, Artery; details: route intraperitoneal
Rattus norvegicus [22] = experiment: Antiarrhythmic activity in barium chloride-induced Wistar rat assessed as increase in mortality time at 40 mg/kg, ip administered 60 mins before barium chloride challenge (reference value: 682.8 +/- 9.656 secs); format: functional, Heart; details: route intraperitoneal
Rattus norvegicus [23] = experiment: Toxicity in anaesthetized-Wistar rat assessed as Q-T ECG interval at 40 mg/kg, ip after 60 mins (reference value: 79.7 +/- 0.965 ms); format: organism-based; set-up: dose 40 mg/kg, route intraperitoneal; details: in vivo, 1 h
Rattus norvegicus [24] = experiment: Toxicity in anaesthetized-Wistar rat assessed as QRS ECG interval at 40 mg/kg, ip after 45 mins (reference value: 20.2 +/- 1.348 ms); format: organism-based; set-up: dose 40 mg/kg, route intraperitoneal; details: in vivo, 0.75 h
Rattus norvegicus [25] = experiment: Toxicity in […] normotensive Wistar rat assessed as mean arterial pressure at 40 mg/kg, ip after 30 mins (reference value: 94.68 +/- 1.213 mmHg); format: organism-based, Artery; set-up: dose 40 mg/kg, route intraperitoneal; details: in vivo, 0.5 h
Rattus norvegicus [26] = experiment: Toxicity in anaesthetized-Wistar rat assessed as Q-T ECG interval at 40 mg/kg, ip measured immediately at 0 min (reference value: 78.8 +/- 1.030 ms); format: organism-based; set-up: dose 40 mg/kg, route intraperitoneal; details: in vivo, 0 h
Rattus norvegicus [27] = experiment: Antihypertensive activity in Wistar rat assessed as mean arterial pressure at 40 mg/kg, ip after 15 mins (reference value: 195.68 +/- 1.623 mmHg); format: functional, Artery; details: route intraperitoneal
Rattus norvegicus [28] = experiment: Antihypertensive activity in Wistar rat assessed as mean arterial pressure at 40 mg/kg, ip after 30 mins (reference value: 194.72 +/- 1.002 mmHg); format: functional, Artery; details: route intraperitoneal
Rattus norvegicus [29] = experiment: Toxicity in […] normotensive Wistar rat assessed as mean arterial pressure at 40 mg/kg, ip after 60 mins (reference value: 95.07 +/- 1.973 mmHg); format: organism-based, Artery; set-up: dose 40 mg/kg, route intraperitoneal; details: in vivo, 1 h
Rattus norvegicus [30] = experiment: Toxicity in […] normotensive Wistar rat assessed as mean arterial pressure at 40 mg/kg, ip after 15 mins (reference value: 93.81 +/- 1.543 mmHg); format: organism-based, Artery; set-up: dose 40 mg/kg, route intraperitoneal; details: in vivo, 0.25 h
Rattus norvegicus [31] = experiment: Toxicity in anesthetized-normotensive Wistar rat assessed as heart rate at 40 mg/kg, ip after 60 mins (reference value: 314.96 +/- 9.442 bpm); format: organism-based; set-up: dose 40 mg/kg, route intraperitoneal; details: in vivo, 1 h

Compound | Activity (Rattus norvegicus [1]) | Activity (Rattus norvegicus [2]) | Activity (Rattus norvegicus [3]) | Activity (Rattus norvegicus [4]) | Activity (Rattus norvegicus [5]) | Activity (Rattus norvegicus [6]) | Activity (Rattus norvegicus [7]) | Activity (Rattus norvegicus [8]) | Time (Rattus norvegicus [9]) | Activity (Rattus norvegicus [10]) | Activity (Rattus norvegicus [11]) | Activity (Rattus norvegicus [12]) | Activity (Rattus norvegicus [13]) | Activity (Rattus norvegicus [14]) | Activity (Rattus norvegicus [15]) | Activity (Rattus norvegicus [16]) | Activity (Rattus norvegicus [17]) | Activity (Rattus norvegicus [18]) | Activity (Rattus norvegicus [19]) | Activity (Rattus norvegicus [20]) | further results
CCCCN(CCCC)CC(O)CN1C(=O)/C(=C\c2ccccc2)S/C1=N\c1ccccc1 (stereo not drawn) | 20.4 min | 283.5 bpm | 68.9 min | 55 min | 309.12 bpm | 53.5 ms | 22 ms | 67.9 min | 265.4 s | 163.37 mmHg | 54.3 min | 57.3 min | 95.56 mmHg | 80.16 mmHg | 182.09 mmHg | 21.6 min | 276.46 bpm | 297.25 bpm | 22.6 min | 56.1 min | Activity (Rattus norvegicus [21]): 195.08 mmHg; Time (Rattus norvegicus [22]): 786.2 s; Activity (Rattus norvegicus [23]): 66.4 ms; Activity (Rattus norvegicus [24]): 22.4 min; Activity (Rattus norvegicus [25]): 77.87 mmHg; Activity (Rattus norvegicus [26]): 67 min; Activity (Rattus norvegicus [27]): 171.43 mmHg; Activity (Rattus norvegicus [28]): 159.69 mmHg; Activity (Rattus norvegicus [29]): 90.59 mmHg; Activity (Rattus norvegicus [30]): 84.43 mmHg; Activity (Rattus norvegicus [31]): 301.69 bpm
O=C1/C(=C\c2ccccc2)S/C(=N\c2ccccc2)N1CC(O)CN1CCOCC1 (stereo not drawn) | 23.4 min | 294.42 bpm | 73.2 min | 50.2 min | 315.15 bpm | 49.9 ms | 23.8 ms | 74.9 min | 313.5 s | 131.61 mmHg | 52.7 min | 51.3 min | 92.99 mmHg | 62.69 mmHg | 154.93 mmHg | 23.2 min | 293.54 bpm | 304.65 bpm | 23.7 min | 50.9 min | Activity (Rattus norvegicus [21]): 195.43 mmHg; Time (Rattus norvegicus [22]): 1089.8 s; Activity (Rattus norvegicus [23]): 74.2 ms; Activity (Rattus norvegicus [24]): 23.1 min; Activity (Rattus norvegicus [25]): 73.87 mmHg; Activity (Rattus norvegicus [26]): 74.3 min; Activity (Rattus norvegicus [27]): 175.31 mmHg; Activity (Rattus norvegicus [28]): 168.61 mmHg; Activity (Rattus norvegicus [29]): 71.43 mmHg; Activity (Rattus norvegicus [30]): 82.61 mmHg; Activity (Rattus norvegicus [31]): 308.42 bpm
O=C1/C(=C\c2ccccc2)S/C(=N\c2ccccc2)N1CC(O)CN1CCCC1 (stereo not drawn) | 20.5 min | 287.15 bpm | 72.6 min | 51.6 min | 318.73 bpm | 50.2 ms | 22.5 ms | 71.2 min | 285.3 s | 149.39 mmHg | 52.8 min | 53.3 min | 93.02 mmHg | 69.69 mmHg | 177.56 mmHg | 21.3 min | 256.85 bpm | 298.54 bpm | 20.6 min | 54.3 min | Activity (Rattus norvegicus [21]): 196.1 mmHg; Time (Rattus norvegicus [22]): 918.8 s; Activity (Rattus norvegicus [23]): 70.9 ms; Activity (Rattus norvegicus [24]): 21.1 min; Activity (Rattus norvegicus [25]): 74.76 mmHg; Activity (Rattus norvegicus [26]): 70.6 min; Activity (Rattus norvegicus [27]): 165.01 mmHg; Activity (Rattus norvegicus [28]): 148.37 mmHg; Activity (Rattus norvegicus [29]): 73.12 mmHg; Activity (Rattus norvegicus [30]): 84.63 mmHg; Activity (Rattus norvegicus [31]): 309.32 bpm
